# Patent US20230053540A1, “TREATMENT OF LIVER INJURY” (Massachusetts Institute of Technology, priority 2019, published 2023)
# System: hepatocytes
# Experiment: Seq-Well scRNA-Seq of hepatocytes after APAP overdose (signature scores, DEG vs untreated)
# Type: in vivo, mouse
smiles,measurement,setting,value
"CC(=O)Nc1ccc(O)cc1 [APAP, acetaminophen]",Cp avg_logFC,APAP composite vs UT,0.4362
same,Cyb5 avg_logFC,APAP composite vs UT,−0.7102
same,Cyp4a10 avg_logFC,APAP composite vs UT,1.135
same,Cyp4a14 avg_logFC,APAP composite vs UT,1.704
same,Fabp1 avg_logFC,APAP composite vs UT,−1.016
same,Fga avg_logFC,APAP composite vs UT,0.8285
same,Fgb avg_logFC,APAP composite vs UT,0.745
same,Fgg avg_logFC,APAP composite vs UT,0.6805
same,Fgl1 avg_logFC,APAP composite vs UT,0.8649
same,Fth1 avg_logFC,APAP composite vs UT,0.3784
same,Gclc avg_logFC,APAP composite vs UT,1.903
same,Gm13775 avg_logFC,APAP composite vs UT,−1.078
same,Gm15564 avg_logFC,APAP composite vs UT,1.821
same,Gm24601 avg_logFC,APAP composite vs UT,0.9844
same,Gm26924 avg_logFC,APAP composite vs UT,1.419
same,Gpx1 avg_logFC,APAP composite vs UT,−0.7686
same,Grip2 avg_logFC,APAP composite vs UT,0.8779
same,Hbb-bs avg_logFC,APAP composite vs UT,2.862
same,Hilpda avg_logFC,APAP composite vs UT,0.7786
same,Hmgcs2 avg_logFC,APAP composite vs UT,0.6293
same,Hmox1 avg_logFC,APAP composite vs UT,1.348
same,Hrg avg_logFC,APAP composite vs UT,0.5189
same,Igfbp4 avg_logFC,APAP composite vs UT,0.4353
same,Lars2 avg_logFC,APAP composite vs UT,1.711
same,Mat1a avg_logFC,APAP composite vs UT,1
same,Mfsd2a avg_logFC,APAP composite vs UT,0.6661
same,Mt1 avg_logFC,APAP composite vs UT,2.388
same,Mt2 avg_logFC,APAP composite vs UT,2.063
same,Mup3 avg_logFC,APAP composite vs UT,−0.8062
same,Mup5 avg_logFC,APAP composite vs UT,−1.371
same,Mup6 avg_logFC,APAP composite vs UT,−2.032
same,Mup7 avg_logFC,APAP composite vs UT,−1.116
same,Mup9 avg_logFC,APAP composite vs UT,−2.004
same,Mup11 avg_logFC,APAP composite vs UT,−3.214
same,Mup12 avg_logFC,APAP composite vs UT,−1.27
same,Mup15 avg_logFC,APAP composite vs UT,−1.316
same,Mup16 avg_logFC,APAP composite vs UT,−1.602
same,Mup17 avg_logFC,APAP composite vs UT,−2.354
same,Mup18 avg_logFC,APAP composite vs UT,−1.727
same,Mup19 avg_logFC,APAP composite vs UT,−2.396
same,Mup21 avg_logFC,APAP composite vs UT,−1.008
same,Ndrg2 avg_logFC,APAP composite vs UT,0.4122
same,Nudt7 avg_logFC,APAP composite vs UT,−1.564
same,Ppl avg_logFC,APAP composite vs UT,0.8798
same,Rbp4 avg_logFC,APAP composite vs UT,0.3014
same,Retsat avg_logFC,APAP composite vs UT,0.6813
same,S100a8 avg_logFC,APAP composite vs UT,1.128
same,S100a9 avg_logFC,APAP composite vs UT,1.343
same,Saa1 avg_logFC,APAP composite vs UT,−1.078
same,Selenbp2 avg_logFC,APAP composite vs UT,−1.19
same,Sephs2 avg_logFC,APAP composite vs UT,0.89
same,Sepp1 avg_logFC,APAP composite vs UT,0.4486
same,Serpina1a avg_logFC,APAP composite vs UT,−0.6752
same,Serpina1e avg_logFC,APAP composite vs UT,−0.662
same,Serpina1d avg_logFC,APAP composite vs UT,−0.494
same,Slco1a4 avg_logFC,APAP composite vs UT,0.5526
same,Snord118 avg_logFC,APAP composite vs UT,0.6174
same,Srxn1 avg_logFC,APAP composite vs UT,1.878
same,Sult1a1 avg_logFC,APAP composite vs UT,0.5605
same,Tnfrsf12a avg_logFC,APAP composite vs UT,1.118
same,Ttpa avg_logFC,APAP composite vs UT,0.6012
same,Ttr avg_logFC,APAP composite vs UT,−0.5306
same,mt-Co1 avg_logFC,APAP composite vs UT,−1.433
same,mt-Co2 avg_logFC,APAP composite vs UT,−1.397
same,mt-Cytb avg_logFC,APAP composite vs UT,−1.571
same,mt-Nd1 avg_logFC,APAP composite vs UT,−1.42
same,mt-Nd2 avg_logFC,APAP composite vs UT,−1.242
same,mt-Nd4 avg_logFC,APAP composite vs UT,−1.957
same,mt-Nd5 avg_logFC,APAP composite vs UT,−1.384
same,mt-Rnr1 avg_logFC,APAP composite vs UT,−0.4854
same,mt-Rnr2 avg_logFC,APAP composite vs UT,−0.7783
same,n-R5-8s1 avg_logFC,APAP composite vs UT,1.253
same,1-Mar logFC,APAP vs UT,−0.4778
same,2-Mar logFC,APAP vs UT,−0.5599
same,1110008F13Rik logFC,APAP vs UT,−0.4553
same,1600014C10Rik logFC,APAP vs UT,−0.4982
same,3110043O21Rik logFC,APAP vs UT,0.2694
same,8430408G22Rik logFC,APAP vs UT,−0.5021
same,AA474408 logFC,APAP vs UT,0.4364
same,Aadac logFC,APAP vs UT,−0.62
same,Abca1 logFC,APAP vs UT,0.7245
same,Abhd2 logFC,APAP vs UT,0.4844
same,Acox1 logFC,APAP vs UT,0.2752
same,Acsl4 logFC,APAP vs UT,0.3147
same,Acss2 logFC,APAP vs UT,−0.6201
same,Adh4 logFC,APAP vs UT,−0.5269
same,Adh5 logFC,APAP vs UT,−0.4914
same,Adh6-ps1 logFC,APAP vs UT,−0.4185
same,Adipor2 logFC,APAP vs UT,−0.4738
same,Agmat logFC,APAP vs UT,−0.4718
same,Ak3 logFC,APAP vs UT,0.289
same,Akr1c14 logFC,APAP vs UT,−0.5186
same,Akr1c20 logFC,APAP vs UT,−0.5542
same,Akr1e1 logFC,APAP vs UT,−0.2582
same,Alas1 logFC,APAP vs UT,−0.4898
same,Alb logFC,APAP vs UT,0.4203
same,Alcam logFC,APAP vs UT,0.3238
same,Aldh1a1 logFC,APAP vs UT,−0.4788
same,Aldh3a2 logFC,APAP vs UT,−0.8342
same,Aldh8a1 logFC,APAP vs UT,−0.6837
same,Aox3 logFC,APAP vs UT,−0.3333
